One data set relates to HCV. In words: EVLP of HCV+ human donor lungs with light therapy, viral load by RealTime PCR. The protocol:
(§1) Human Lung Studies: effect of EVLP and light therapies into HCV titers: In order to evaluate the effect of EVLP itself and also as a platform for light-based therapies against HCV titers in the lung tissue and perfusate solution, 9 rejected human lungs from NAT+ HCV donors. Donor lungs were recovered using standard protocols and flushed with cold Low-Potassium Dextran (LPD) solution and preserved at 4° C. as routine clinical practice. Following the pre-EVLP flush, the lungs were placed in 2 independent EVLP circuits for 9 hours. One lung was the control group (standard EVLP protocol, (n=9), whereas the other lung was randomly subjected to different treatment conditions (n=3, each) (FIG. 13A): (1) Intense lung wash (replacement of perfusate solution and circuit after 3 h of EVLP); (2) Ultra Violet C (UVC) light (260 nm, 4 W) applied to EVLP perfusate; (3) Photodynamic Therapy (PDT), using Methylene Blue (MB) diluted in the perfusion solution (1 umol/L) associated with red light irradiation (630 nm, 20 mW/cm^2). The advantage of such design is that both control and treated lungs come from the same donor (same virus load as baseline). Tissue biopsies were collected from lower, and upper lobes of the lungs at baseline and every 3 h during perfusion and perfusate samples were collected hourly. All samples were assessed for viral load quantification using RealTime PCR assay. The results were normalized for percentage of viral load decrease. To translate the application of light therapies to an EVLP system, a specific device suitable to be inserted inline in the EVLP circuit where different light wavelengths could be applied to treat the perfusion solution.

The nature of data set [1]: Ex vivo lung function during 9 hours of EVLP of human donor lungs. To be noted: PDT (MB 1 umol/L + red light) applied to circuit, 9 hours EVLP. The protocol: as §1, with “The results were normalized for percentage of viral load decrease. To translate the application of light therapies to an EVLP system, a specific device suitable to be inserted inline in the EVLP circuit where different light wavelengths could be applied to treat the perfusion solution.” left out

The nature of data set [2]: Pre-clinical large animal lung transplant safety model (EVLP 6 h, left lung transplant, 4 h reperfusion). In kind it is in vivo, Yorkshire male domestic pigs. The conditions noted are these: PDT MB 1 umol/L + red light vs control and UVC. The protocol:
In order to translate such approach to the clinical EVLP setting, the safety of applying UVC and PDT during EVLP was assessed using a pre-clinical large animal transplant model (FIG. 15D).
In this model, Yorkshire male domestic pigs (30-35 kg) were used, under anesthesia and mechanic ventilation. After lung withdrawal, lungs were preserved for 2 hours at 4° C., followed by EVLP for 6 hours. During EVLP, pig lungs were randomized for three groups (n=4, each): (1) Control (standard EVLP technique); (2) Ultra Violet C; (3) Photodynamic Therapy (PDT), using Methylene Blue (MB) diluted in the perfusion solution (1 umol/L) associated with red light irradiation. During EVLP, lung physiology was assessed (pulmonary vascular resistance, pulmonary artery pressure, left atrium (venous) pressure, peak airway pressure, plateau pressure, dynamic compliance, static compliance and gas exchange function-PO2); There was no difference in ex vivo lung function during 6 hours amongst the groups. After EVLP, the left lung was transplanted followed by 4 hours of reperfusion. Post-transplant blood gas samples were collected of the transplanted graft upper and lower pulmonary veins and the average of the partial pressure of arterial oxygen (PaO2)/fraction of inspired oxygen (FiO2) was calculated.

Another data set deals with HCV JFH-1 strain. The data set can be described thus: Mini-EVLP circuit spiked with HCV JFH-1, infectivity loss in Huh 7.5.1 hepatocyte culture.
Data set [3] relates to Staphylococcus aureus, Stenotrophomonas maltophilia, and Pseudomonas aeruginosa. The conditions noted are these: antibiotic 333 mg/L, LB Agar plates, UVC group 0. The protocol: Methods: A mixture of low-potassium-dextran lung perfusion solution and Lysogeny Broth (LB) media was spiked with 1,0×10^5 CFU/mL of Staphylococcus aureus, Stenotrophomonas maltophilia, and Pseudomonas aeruginosa. A mini EVLP and UVC irradiator was used (FIG. 7). After priming, the circuits were divided into three groups (n=4, each) and evaluated for 180 minutes: 1) Control (no treatment); 2) UVC (236 nm, 9 J/cm^2) and 3) Antibiotic (Imipenem/Cilastatin, 333 mg/L). Samples were taken at different timepoints and analysed, using LB Agar culture plates and bacterial DNA qPCR assay.

`CN(C)c1ccc2nc3ccc(=[N+](C)C)cc-3sc2c1` [Methylene blue]: the “decrease of HCV titers in human donor lungs” value in the data set on HCV (PDT using MB as photosensitizer, summary statement) came out at 98%. Besides, in the data set with HCV (PDT: methylene blue 1 umol/L + red light 630 nm, 20 mW/cm^2, 9 h EVLP, lung tissue, control 75.46%), the “HCV titers in lung tissue, % reduction” value is given as 90.96%. For the same molecule, in the data set with HCV (PDT: methylene blue 1 umol/L + red light 630 nm/20 mW/cm^2, 9 h EVLP, perfusate, control 69.49%), the “perfusate HCV titres (% reduction from baseline)” value came out at 97.87%. In data set [1], the “ex vivo lung function during EVLP (delta P/F ratio, peak airway pressure, dynamic compliance) vs control lung” value is given as “no significant difference”. In data set [2] (pig left lung transplant), the “post-transplant PaO2/FiO2 after 4 h of reperfusion, among the groups” value is “no significant difference”. The “ex vivo lung function during 6 hours EVLP amongst the groups” value in data set [2] (pig lungs) was “no difference”. In the data set on HCV JFH-1 strain (PDT group, red light 630 nm, 20 mW/cm^2, JFH-1 1.5×10^6 copies/mL, 37° C.), the “perfusion time after which no infectivity was observed” value was 15 min. For the same molecule, in the data set with HCV JFH-1 strain (regular room light instead of red light), the “effect on HCV infectivity with ambient (room) light activation compared with red light” value is “weaker than with red light”.
As to Imipenem/Cilastatin, the “bacterial growth after 180 minutes of treatment” value in data set [3] was found to be 15±2.3 colonies/plate.
